Source: US6570001B1, “Polynucleotides and their use for detecting resistance to streptogramin A or to streptogramin B and related compounds” (priority 1997, dated 2003)

Columns and labels:
[1] = system: Staphylococcal strains resistant to streptogramins; conditions: staphylococci resistant to synergistic mixtures of A and B compounds / to A compounds (Allignet et al., 1996); cited from earlier work
[2] = system: S. aureus recipient RN4220 transformants carrying recombinant plasmid pIP1717; assay: MICs by serial twofold dilutions in MHA, S. aureus RN4220 transformants carrying pIP1717 (vgaB); type: cell-based; conditions: S. aureus RN4220 transformants with pIP1717
Excerpt: First, the 2.4 kb HindIII-Haelll fragment of pIP1675, which contains only 10 nucleotide from vatB, was inserted into plasmid pOX300, and the recombinant plasmid, pIP1717 (FIG. 1B), was introduced by electroporation into the S. aureus recipient, RN4220 (Kreiswirth et al., 1983). Plasmid pOX300, also named pOX7, (Dyke and Curnock, 1989), is a hybrid of pUC18 and pEl94ts and replicates in E. coli where it confers resistance to ampicillin and to erythromycin, and in S. aureus where only resistance to erythromycin is expressed. The S. aureus transformants selected on 10 μg/ml erythromycin were resistant to streptogramin A and related compounds (PIIA MICs=8-16 μg/ml). Thus, the 2.4-kb HindIII-HaeIII insert of pIP1717 (FIG. 1B) probably carried a streptogramin A resistance gene and was sequenced. The nucleotide (nucleotide) sequence of this fragment was determined by the dideoxy method (Sanger et al., 1977) with the reagents and the procedure recommended by the suppliers of the T^7 sequencing kit (Pharmacia International). Arrows indicate the direction and extent of each dideoxy-sequencing reaction. (FIG. 1B).
(§1) Minimal inhibitory concentrations (MICs) of antibiotics were determined by serial twofold dilutions of antibiotics in MHA (Ericson H. M. and S. C. Sherris, ActaPathol. Microbiol. Scand., 1971, Suppl. 217:Section B).

[3] = system: S. aureus recipient strain RN4220 harboring pIP1714; assay: Susceptibility of S. aureus RN4220 transformant harboring pIP1714 (vatC, vgbB); type: cell-based; conditions: RN4220 transformant harboring pIP1714, selected on 10 μg/ml pristinamycin IIA
Procedure: The strain BM10711 harbored several plasmids including pIP1714 (5 kb). This plasmid was isolated by electroporation in a S. aureus recipient strain, RN4220. The transformant, harboring pIP1714, was selected on BHIA containing 10 μg/ml pristinamycin IIA.
Susceptibility to antimicrobial agents was determined with a disk diffusion assay and commercially available disks (Diagnostic Pasteur). Additional disks prepared in our laboratory contained streptogramin A (20 μg) or streptogramin B (40 μg).
as §1

| Compound | MIC [1] | resistance phenotype [2] | resistance phenotype [3] |
| --- | --- | --- | --- |
| CC1=C\[C@@H](O)CC(=O)Cc2nc(co2)C(=O)N2CCC=C2C(=O)O[C@H](C(C)C)[C@H](C)/C=C/C(=O)NC\C=C\1 [PIIA, pristinamycin IIA] | ≥ 8 µg/mL |  |  |
| streptogramin A |  | resistant | conferred resistances |
| streptogramin B |  |  | conferred resistances |
